These results are taken from patent US12616806B2, “Nasal administration” (OptiNose Inc., priority 2013, dated 2026).

The test system of experiment [1] is episodic migraine. The note with it: continuous carbon dioxide infusion; cited from earlier work.
The conditions of experiment [2]: cited from earlier work.
The test system of experiment [3] is chronic rhinosinusitis (CRS) with nasal polyps. The experiment in a line: Example #12: placebo controlled study in chronic rhinosinusitis with nasal polyps. In kind it is in vivo, human. The note with it: after 12 weeks.

For `O=C=O` [carbon dioxide], in experiment [1], the “two-hour pain free response” value is given as 25.0%. The “dips in mucosal pH” value in experiment [2] (5 L/min carbon dioxide in concentrations of 15% and 45%) is reported as 0.1-0.2 pH units. In addition, in experiment [2] (5 L/min, 3 s duration, 20% carbon dioxide, basal ~7.4), the “decrease of extracellular nasal mucosal pH” value is recorded as 0.05-0.1 pH units.

As for `C[C@@H]1C[C@H]2[C@@H]3C[C@H](F)C4=CC(=O)C=C[C@]4(C)[C@@]3(F)[C@@H](O)C[C@]2(C)[C@@]1(O)C(=O)SCF` [fluticasone], the “change in summed polyp score” value in experiment [3] is on record as −0.98.
